Reference: patent publication US8163909B2, “Substituted hydroxyethyl amine compounds as beta-secretase modulators and methods of use” (Amgen Inc., priority 2007, dated 2012)
Read-outs that look alike come from different tables or passages of the source.

Tests used:
[1] = Microsomal stability assay, human liver microsomes;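 note: pooled human liver microsomes at 0.25 mg/mL with 1 µM compound and NADPH at 37 °C, pH 7.4, for 30 min, unchanged parent quantified by LC-MS/MS against the 0 min sample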
[2] = system: Aβ40 in conditioned medium of cells stably expressing Amyloid Precursor Protein (APP); assay: In vitro BACE cell-based assay (Aβ40 in conditioned medium, sandwich ELISA); settings: Homo sapiens;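 note: compounds added as a dilution series, secreted peptide quantified by europium time-resolved fluorescence readout, potency fitted from percent of control versus compound concentration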
[3] = molecular target: Beta Secretase enzyme (BACE) (Homo sapiens, UniProt P56817); assay: In vitro enzymatic BACE FRET (fluorescence resonance energy transfer) assay; assay type: biochemical;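 note: fluorescence read after 1 h with 50 nM quenched peptide substrate spanning the BACE cleavage site, in pH 4.2 acetate buffer containing 10% DMSO and nonionic detergent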
[4] = Microsomal stability assay, rat liver microsomes;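 note: rat liver microsomes (0.25 mg/mL) with about 1 µM compound plus 1 mM NADPH, pH 7.4, 37 °C for 30 min, parent left measured by LC-MS/MS against 0 min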
CYP2D6 = CYP2D6 (Homo sapiens, UniProt P10635); assay: CYP2D6 inhibition assay (bufuralol, pooled human liver microsomes)
CYP3A4 (CYP3A) = CYP3A4 (CYP3A) (Homo sapiens, UniProt P08684); assay: in vitro; settings: microsomes, pH 7.4;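 note: inhibition of CYP3A-mediated 1-hydroxymidazolam formation after 10 min incubation with NADPH, quantified by HPLC MS relative to metabolite produced without test compound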
[5] = HEK293, HEK cells, read-out: HEK cell assay
[6] = BACE enzyme assay, read-out: BACE1 FRET assay
[7] = 2D6 IC50 (uM), CYP enzyme inhibition
[8] = HEK293, HEK cell-based assay IC50, read-out: HEK cell assay
[9] = BACE enzyme assay IC50, read-out: BACE1 FRET assay
[10] = 2D6 IC50 (uM), CYP2D6 inhibition
[11] = HEK293, Table 2, HEK cells, read-out: HEK cell assay
[12] = Table 2, read-out: BACE1 FRET assay
[13] = 2D6 IC50, CYP enzyme inhibition
[14] = HEK293, HEK cell-based assay, IC50's in uM, read-out: HEK cell assay
[15] = BACE enzyme assay, IC50's in uM, read-out: BACE1 FRET assay

CYP3A4 (CYP3A), sequence (P08684 2-503): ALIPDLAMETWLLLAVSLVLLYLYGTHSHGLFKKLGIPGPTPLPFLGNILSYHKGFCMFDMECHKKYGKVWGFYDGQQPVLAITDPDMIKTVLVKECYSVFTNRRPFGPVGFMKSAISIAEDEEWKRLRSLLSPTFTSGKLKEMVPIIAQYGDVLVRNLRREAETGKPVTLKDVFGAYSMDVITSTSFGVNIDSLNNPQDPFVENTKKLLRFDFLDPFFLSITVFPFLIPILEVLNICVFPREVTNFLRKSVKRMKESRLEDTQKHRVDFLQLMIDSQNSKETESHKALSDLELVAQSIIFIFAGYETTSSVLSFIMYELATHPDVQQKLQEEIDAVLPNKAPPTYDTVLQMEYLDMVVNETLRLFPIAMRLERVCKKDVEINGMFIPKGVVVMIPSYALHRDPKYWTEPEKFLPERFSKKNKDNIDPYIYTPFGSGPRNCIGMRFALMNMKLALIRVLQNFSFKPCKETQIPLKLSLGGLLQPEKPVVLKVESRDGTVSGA
Beta Secretase enzyme (BACE), sequence (P56817 46-501): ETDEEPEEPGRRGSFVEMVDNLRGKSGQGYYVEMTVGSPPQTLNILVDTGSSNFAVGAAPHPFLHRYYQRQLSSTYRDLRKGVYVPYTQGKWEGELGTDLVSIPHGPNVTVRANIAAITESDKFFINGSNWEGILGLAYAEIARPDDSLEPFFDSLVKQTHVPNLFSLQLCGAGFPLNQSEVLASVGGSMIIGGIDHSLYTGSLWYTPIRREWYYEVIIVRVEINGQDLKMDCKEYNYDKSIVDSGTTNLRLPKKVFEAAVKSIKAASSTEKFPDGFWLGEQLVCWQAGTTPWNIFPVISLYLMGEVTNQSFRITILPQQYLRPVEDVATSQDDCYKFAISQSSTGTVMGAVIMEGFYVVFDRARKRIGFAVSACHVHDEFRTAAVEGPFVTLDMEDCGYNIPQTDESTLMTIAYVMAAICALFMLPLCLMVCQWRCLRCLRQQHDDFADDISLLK
CYP2D6, sequence (P10635 whole entry): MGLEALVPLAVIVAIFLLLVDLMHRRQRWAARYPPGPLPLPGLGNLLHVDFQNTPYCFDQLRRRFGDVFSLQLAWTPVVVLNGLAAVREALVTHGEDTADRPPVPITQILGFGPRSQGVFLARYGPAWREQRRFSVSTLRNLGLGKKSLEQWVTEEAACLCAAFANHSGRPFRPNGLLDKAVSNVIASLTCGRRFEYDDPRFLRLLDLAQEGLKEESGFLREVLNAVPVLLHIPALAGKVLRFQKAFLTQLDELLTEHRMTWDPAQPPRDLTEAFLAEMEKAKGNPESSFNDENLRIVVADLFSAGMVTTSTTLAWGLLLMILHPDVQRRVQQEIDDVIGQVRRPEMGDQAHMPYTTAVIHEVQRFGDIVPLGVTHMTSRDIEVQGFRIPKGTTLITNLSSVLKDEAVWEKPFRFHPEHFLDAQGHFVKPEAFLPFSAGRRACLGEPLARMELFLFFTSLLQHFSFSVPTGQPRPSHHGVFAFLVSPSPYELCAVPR

| Compound | HLM ([1]; human liver microsomal data) | IC50 [2, 5] | IC50 [3, 6] | RLM ([4]; rat liver microsomal data) | IC50 (CYP2D6; [7]) | IC50 (CYP3A4 (CYP3A)) | HLM ([1]; human liver microsomes) | RLM ([4]; rat liver microsomes) | other results |
| --- | --- | --- | --- | --- | --- | --- | --- | --- | --- |
| CO[C@H](C)C(=O)N[C@@H](Cc1cccc(F)c1)[C@H](O)CN[C@H]1CC2(CCC2)Oc2c(-c3ccncc3)cc(CC(C)(C)O)cc21 [compound 567] | 67 µL/min/mg | 0.009 µM | 0.039 µM | 120 µL/min/mg | 2.2 µM | 100 nM | – | – | – |
| COCC(=O)N[C@@H](Cc1cc(F)cc(F)c1)[C@H](O)CN[C@H]1CC2(CCC2)Oc2c(-c3ccncc3)cc(Cl)cc21 [compound 560] | 209 µL/min/mg | 0.058 µM | 0.049 µM | 829 µL/min/mg | 0.4 µM | 200 nM | – | – | – |
| CC(=O)N[C@@H](Cc1cccc(-c2ncc[nH]2)c1)[C@H](O)CN[C@H]1CC2(CCC2)Oc2ncc(CC(C)(C)C)cc21 [Example 429, N-((2S,3R)-1-(3-(1H-imidazol-2-yl)phenyl)-4-((S)-2,2-spirocyclobutyl-6-neopentyl-3,4-dihydro-2H-pyrano[2,3-b]pyridin-4-ylamino)-3-hydroxybutan-2-yl)acetamide] | – | – | – | – | – | 1300 nM | 88 µL/min/mg | 37 µL/min/mg | IC50 [2, 8]: 0.6 µM; IC50 [3, 9]: 3.59 µM; IC50 (CYP2D6; [10]): 0.5 µM |
| CC(=O)N[C@@H](Cc1cc(F)cc(F)c1)[C@H](O)CN[C@H]1CC2(CCC2)Oc2c1cc(CC(C)(C)C)nc2-n1ccnc1 [compound 465] | 18.5 µL/min/mg | – | – | 51.5 µL/min/mg | – | 100 nM | – | – | IC50 [2, 11]: 0.032 µM; IC50 [3, 12]: 0.019 µM; IC50 (CYP2D6; [13]): 1 µM |
| COCC(=O)N[C@@H](Cc1cccc(F)c1)[C@H](O)CN[C@H]1CC2(CCC2)Oc2c1cc([C@H](n1ccnc1)C(C)(C)C)cc2-n1ccnc1 [compound 563] | 40 µL/min/mg | > 10 µM | 12 µM | 40 µL/min/mg | 0.4 µM | 100 nM | – | – | – |
| CC(C)(C)Cc1cnc2c(c1)[C@@H](NC[C@@H](O)[C@H](Cc1ccc(F)cc1)NC(=O)[C@@H]1CN(Cc3nccs3)CCO1)CC1(CCC1)O2 [compound 769] | 706 µL/min/mg | – | – | 333 µL/min/mg | 5.2 µM | 400 nM | – | – | IC50 [2, 14]: 0.013 µM; IC50 [3, 15]: 0.01 µM |
| COCC(=O)N[C@@H](Cc1cccc(C#N)c1)[C@H](O)CN[C@H]1CC2(CC(F)(F)C2)Oc2ncc(CC(C)(C)C)cc21 [compound 470] | 579 µL/min/mg | – | – | 560 µL/min/mg | – | 1100 nM | – | – | IC50 [2, 11]: 0.014 µM; IC50 [3, 12]: 0.004 µM; IC50 (CYP2D6; [13]): 5.8 µM |
| CO[C@H](C)C(=O)N[C@@H](Cc1cccc(F)c1)[C@H](O)CN[C@H]1CC2(CCC2)Oc2c(-c3cscn3)cc(CC(C)C)cc21 [compound 524] | 492 µL/min/mg | 0.065 µM | 0.008 µM | 472 µL/min/mg | 7.5 µM | 500 nM | – | – | – |
| CO[C@@H](C)C(=O)N[C@@H](Cc1ccc2c(c1)OCO2)[C@H](O)CN[C@H]1CC2(CCC2)Cc2sc(CC(C)(C)C)cc21 [compound 456] | 74 µL/min/mg | – | – | 97 µL/min/mg | – | 900 nM | – | – | IC50 [2, 11]: 0.723 µM; IC50 [3, 12]: 0.359 µM; IC50 (CYP2D6; [13]): 3.1 µM |
| Cc1ccc(CN2CCO[C@@H](C(=O)N[C@@H](Cc3ccc(F)cc3)[C@H](O)CN[C@H]3CC4(CCC4)Oc4ncc(CC(C)(C)C)cc43)C2)cc1 [compound 709] | – | – | – | – | – | 300 nM | 614 µL/min/mg | 375 µL/min/mg | IC50 [2, 8]: 0.038 µM; IC50 [3, 9]: 0.028 µM; IC50 (CYP2D6; [10]): 3.7 µM |
| CO[C@H](C)C(=O)N[C@@H](Cc1ccccc1)[C@H](O)CN[C@H]1CC2(CCC2)Oc2c(-c3cncn3C)cc(CC(C)C)cc21 [compound 634] | – | – | – | – | – | 100 nM | 50 µL/min/mg | 340 µL/min/mg | IC50 ([2]; HEK293, HEK cells, read-out: HEK cell assay (IC50)): 0.014 µM; IC50 ([3]; read-out: BACE1 FRET assay (IC50)): 0.126 µM; IC50 (CYP2D6; 2D6 IC50, CYP2D6 inhibition): 4.5 µM |
| CO[C@H](C)C(=O)N[C@@H](Cc1cc(F)cc(F)c1)[C@H](O)CN[C@H]1CC2(CCC2)Oc2c(-c3cnc[nH]3)cc(CC(C)C)cc21 [compound 476] | 329 µL/min/mg | – | – | 408 µL/min/mg | – | 600 nM | – | – | IC50 [2, 11]: 0.005 µM; IC50 [3, 12]: 0.028 µM; IC50 (CYP2D6; [13]): 12.3 µM |
| COCC(=O)N[C@@H](Cc1cccc(F)c1)[C@H](O)CN[C@H]1CC2(CCC2)Oc2ccc(C[C@H](C)F)cc21 [compound 512] | 614 µL/min/mg | 0.061 µM | 0.028 µM | 829 µL/min/mg | 0.5 µM | 5700 nM | – | – | – |
| CNc1nc(CC(C)(C)C)cc2c1OC1(CCC1)C[C@@H]2NC[C@@H](O)[C@H](Cc1ccc(F)c(-c2nccs2)c1)NC(=O)COC [compound 716, N-((1S,2R)-3-(((4′S)-6′-(2,2-dimethylpropyl)-8′-(methylamino)-3′,4′-dihydrospiro[cyclobutane-1,2′-pyrano[2,3-c]pyridin]-4′-yl)amino)-1-(4-fluoro-3-(1,3-thiazol-2-yl)benzyl)-2-hydroxypropyl)-2-methoxyacetamide] | – | – | – | – | – | 400 nM | 123 µL/min/mg | 190 µL/min/mg | IC50 [2, 8]: 0.025 µM; IC50 [3, 9]: 0.032 µM; IC50 (CYP2D6; [10]): 1.5 µM |
| CO[C@H](C)C(=O)N[C@@H](Cc1ccc2c(c1)OCO2)[C@H](O)CN[C@H]1CC2(CCC2)Cc2sc(CC(C)(C)C)cc21 [compound 455] | 211 µL/min/mg | – | – | 201 µL/min/mg | – | 2600 nM | – | – | IC50 [2, 11]: 0.231 µM; IC50 [3, 12]: 0.049 µM; IC50 (CYP2D6; [13]): 5.5 µM |
| CC(=O)N[C@@H](Cc1ccc(F)cc1)[C@H](O)CN[C@H]1CC2(CCNC2)Oc2cnc(CC(C)(C)C)cc21 (stereo partly drawn) [compound 702] | – | – | – | – | – | 1800 nM | 14 µL/min/mg | 26 µL/min/mg | IC50 [2, 8]: 0.454 µM; IC50 [3, 9]: 36.4 µM; IC50 (CYP2D6; [10]): 13.5 µM |
| COCC(=O)N[C@H](Cc1cccc(-c2nccs2)c1)[C@@H](O)CN[C@H]1CC2(CCC2)Oc2ccc(CC(C)(C)C)cc21 [compound 701, N-((1R,2S)-3-(((4S)-6-(2,2-dimethylpropyl)-3,4-dihydrospiro[chromene-2,1′-cyclobutan]-4-yl)amino)-2-hydroxy-1-(3-(1,3-thiazol-2-yl)benzyl)propyl)-2-methoxyacetamide] | – | – | – | – | – | 200 nM | 137 µL/min/mg | 160 µL/min/mg | IC50 [2, 8]: 0.033 µM; IC50 [3, 9]: 0.008 µM; IC50 (CYP2D6; [10]): 0.7 µM |
| CO[C@H](C)C(=O)N[C@@H](Cc1cc(F)cc(F)c1)[C@H](O)CN[C@H]1CC2(CCC2)Oc2c(-c3ccncc3)cc(Cl)cc21 [compound 561] | 113 µL/min/mg | 0.262 µM | 0.092 µM | 426 µL/min/mg | 0.4 µM | 100 nM | – | – | – |
| CC(=O)N[C@@H](Cc1ccc2c(c1)OCO2)[C@H](O)CN[C@H]1CC2(CCC2)Oc2ncc(C(F)(F)C(C)(C)C)cc21 [compound 574] | 46 µL/min/mg | 0.606 µM | 0.22 µM | 146 µL/min/mg | 3.5 µM | 200 nM | – | – | – |
| CC(C)Cc1cnc2c(c1)[C@@H](NC[C@H](O)[C@@H](Cc1cccc(-c3nccs3)c1)NC(=O)[C@H]1CCCO1)CC1(CCC1)O2 [compound 795] | 127 µL/min/mg | – | – | 64 µL/min/mg | 0.6 µM | 200 nM | – | – | IC50 [2, 14]: 0.206 µM; IC50 [3, 15]: 0.286 µM |
